Experimental data: ChEMBL document CHEMBL4130402, “Antiprotozoal Linear Furanosesterterpenoids from the Marine Sponge Ircinia oros” (J Nat Prod, 2017)

Assays:
Trypanosoma cruzi = test: Antiprotozoal activity against trypomastigote form of Trypanosoma cruzi Tulahuen C2C4 infected in rat L6 cells after 96 hrs by CPRG/Nonidet-based […]; assay type: functional, organism-based; details: Tulahuen C2C4, L6, 96 h
L6 = test: Cytotoxicity against rat L6 cells after 72 hrs by alamar blue assay; assay type: cell-based; details: L6, 72 h
Leishmania donovani = test: Antiprotozoal activity against amastigote form of Leishmania donovani MHOM/ET/67/L82 after 72 hrs by alamar blue assay; assay type: functional, organism-based; details: MHOM/ET/67/L82, 72 h
[1] = system: Trypanosoma brucei rhodesiense; test: Antiprotozoal activity against blood stream form of Trypanosoma brucei rhodesiense STIB900 after 72 hrs by alamar blue assay; assay type: functional, organism-based; details: STIB900, 72 h
Plasmodium falciparum = test: Antiprotozoal activity against erythrocytic form of chloroquine/pyrimethamine-resistant Plasmodium falciparum K1 after 48 hrs by [3H]-hypoxanthine incorporation assay; assay type: functional, organism-based

SMILES	IC50 (Trypanosoma cruzi) [µM]	IC50 (L6) [µM]	IC50 (Leishmania donovani) [µM]	IC50 [1] [µM]	IC50 (Plasmodium falciparum) [µM]
CC1=C(O)/C(=C/[C@H](C)CCC/C(C)=C/CCc2coc(Cc3ccoc3)c2)OC1=O [IRCININ 1]	120	150	31	97	58
CC1=C(O)/C(=C/[C@H](C)CC/C=C(/C)CCCc2coc(Cc3ccoc3)c2)OC1=O [IRCININ 2]	110	140	28	65	56
O=C(Cn1ccnc1[N+](=O)[O-])NCc1ccccc1 [BENZNIDAZOLE]	3.07	–	–	–	–
COc1cc([C@@H]2c3cc4c(cc3[C@H](O)[C@H]3COC(=O)[C@H]23)OCO4)cc(OC)c1OC [PODOFILOX]	–	0.01	–	–	–
Nc1nc(N)nc(Nc2ccc([As]3SCC(CO)S3)cc2)n1 (stereo unspecified) [MELARSOPROL]	–	–	–	0.015	–
CC1=C(O)/C(=C/[C@H](C)CCC/C(C)=C/CCc2coc(CC3=CCN(CC(=O)O)C3=O)c2)OC1=O	–	> 200	120	130	95
CC1=C(O)/C(=C/[C@H](C)CCC/C(C)=C/CCC2=CC(Cc3ccoc3)N(CC(=O)O)C2=O)OC1=O (stereo partly specified)	–	> 200	95	130	> 100
